Reference: the supplement of paper PMC10307832

Experiments:
Assay in all cases: relative viability (nuclei count vs DMSO), 5 days (fraction); higher = more cells survive
[1] = compound: C1=CC2=C(C=CC(=C2)C=C3C(=O)NC(=NCC4=CC=CS4)S3)N=C1 [RO-3306] + CS(=O)(=O)CCNCc1ccc(-c2ccc3ncnc(Nc4ccc(OCc5cccc(F)c5)c(Cl)c4)c3c2)o1 [Lapatinib] (partner 2 µM)
Procedure, shortened: (§1)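 Medians of duplicate plates are given as relative viability. That measure is the nuclei count in treated wells divided by the count in vehicle wells. Counts were taken on 4× images of lung cancer cell lines in 1536-well plates, 5 days after pin-tool dosing the day after seeding with one drug alone or a fixed anchor-drug dose plus five library-drug doses (not always all listed) in √10 steps.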

[2] = compound: C1=CC2=C(C=CC(=C2)C=C3C(=O)NC(=NCC4=CC=CS4)S3)N=C1 [RO-3306] + CC(=O)c1c(C)c2cnc(Nc3ccc(N4CCNCC4)cn3)nc2n(C2CCCC2)c1=O [Palbociclib] (partner 0.5 µM)
Procedure, shortened: as §1

[3] = compound: O=S(=O)(c1ccccc1)N(CC(F)(F)F)c1ccc(C(O)(C(F)(F)F)C(F)(F)F)cc1 + CS(=O)(=O)N1CCN(Cc2cc3nc(-c4cccc5[nH]ncc45)nc(N4CCOCC4)c3s2)CC1 [Pictilisib] (partner 1 µM)
Procedure, shortened: as §1

[4] = compound: O=S(=O)(c1ccccc1)N(CC(F)(F)F)c1ccc(C(O)(C(F)(F)F)C(F)(F)F)cc1 + CC(C)C[C@H](NC(=O)[C@H](Cc1ccccc1)NC(=O)c1cnccn1)B(O)O [Bortezomib] (partner 0.002 µM)
Procedure, shortened: as §1

[5] = compound: O=S(=O)(c1ccccc1)N(CC(F)(F)F)c1ccc(C(O)(C(F)(F)F)C(F)(F)F)cc1 + CS(=O)(=O)CCNCc1ccc(-c2ccc3ncnc(Nc4ccc(OCc5cccc(F)c5)c(Cl)c4)c3c2)o1 [Lapatinib] (partner 2 µM)
Procedure, shortened: as §1

Row | Cell Line | relative viability ([1]; first compound 0.01 µM) | relative viability ([1]; first compound 0.03162 µM) | relative viability ([1]; first compound 0.1 µM) | relative viability ([1]; first compound 0.3162 µM) | relative viability ([1]; first compound 1 µM) | relative viability ([2]; first compound 0.01 µM) | relative viability ([2]; first compound 0.03162 µM) | relative viability ([2]; first compound 0.1 µM) | relative viability ([2]; first compound 0.3162 µM) | relative viability ([2]; first compound 1 µM) | relative viability ([3]; first compound 0.8 µM) | relative viability ([3]; first compound 2.53 µM) | relative viability ([3]; first compound 8 µM) | relative viability ([4]; first compound 0.8 µM) | relative viability ([4]; first compound 2.53 µM) | relative viability ([4]; first compound 8 µM) | relative viability ([5]; first compound 0.8 µM) | relative viability ([5]; first compound 2.53 µM) | relative viability ([5]; first compound 8 µM)
1 | LOU-NH91 | 0.692 | 0.739 | 0.811 | 0.771 | 0.677 | 0.538 | 0.547 | 0.542 | 0.526 | 0.53 | 0.539 | 0.564 | 0.515 | 0.536 | 0.51 | 0.484 | 0.859 | 0.832 | 0.854
2 | NCI-H647 | 1.45 | 0.881 | 0.974 | 1.32 | 0.783 | 0.486 | 0.325 | 0.355 | 0.474 | 0.446 | 0.323 | 0.345 | 0.372 | 1.27 | 1.03 | 0.967 | 1.52 | 1.17 | 1.2
3 | NCI-H522 | – | – | – | – | – | 1.2 | 0.965 | 1.01 | 1.02 | 1.04 | – | – | – | – | – | – | – | – | –
4 | HCC-78 | 0.733 | 0.704 | 0.732 | 0.728 | 0.583 | 0.483 | 0.518 | 0.504 | 0.548 | 0.403 | 0.157 | 0.193 | 0.252 | 0.531 | 0.39 | 0.52 | 0.61 | 0.592 | 0.614
5 | 201T | 1.04 | 0.954 | 1.01 | 1.04 | 0.823 | 0.31 | 0.342 | 0.325 | 0.36 | 0.367 | 0.632 | 0.628 | 0.82 | 1.02 | 1.04 | 1 | 1.01 | 0.949 | 1.03
6 | ChaGo-K-1 | – | – | – | – | – | 1.04 | 0.854 | 0.911 | 0.871 | 0.578 | 0.647 | 0.693 | 1.24 | 1.1 | 0.933 | 1.47 | – | – | –
7 | NCI-H1993 | – | 0.747 | 0.74 | 0.795 | 0.839 | 0.636 | 0.633 | 0.611 | 0.552 | 0.583 | 0.772 | 0.782 | 1.07 | 1.12 | 0.824 | 1.03 | 0.813 | 0.613 | 0.849
8 | IA-LM | 0.816 | – | 0.665 | 0.698 | 0.388 | – | – | – | – | – | 0.355 | 0.305 | 0.524 | 0.727 | 0.522 | 0.77 | 0.903 | 0.68 | 0.752
9 | EBC-1 | 0.206 | 0.264 | 0.211 | 0.193 | 0.218 | – | – | – | – | – | 0.286 | 0.266 | 0.284 | 0.405 | 0.357 | 0.415 | 0.307 | 0.353 | 0.337
10 | LK-2 | 0.931 | 0.705 | 0.886 | 0.88 | 0.985 | 0.862 | 0.574 | 0.615 | 0.908 | 0.651 | 0.628 | 0.752 | 0.493 | – | – | – | 1.13 | 0.82 | 0.913
11 | NCI-H596 | 0.892 | 0.83 | 1.08 | 1.07 | 1.17 | – | – | – | – | – | 0.353 | 0.342 | 0.335 | 0.997 | 0.791 | 0.843 | 0.999 | 0.828 | 0.998
12 | SW 900 | – | – | – | – | – | 0.61 | 0.505 | 0.539 | 0.542 | 0.51 | – | – | – | – | – | – | – | – | –
13 | Calu-6 | 1.27 | 1.12 | 0.981 | 1.18 | 1.06 | – | – | – | – | – | 0.839 | 0.851 | 0.691 | 0.885 | 0.852 | 0.769 | 0.945 | 0.901 | 0.966
14 | A549 | 1.16 | 0.953 | 0.955 | 1.05 | 0.971 | – | – | – | – | – | 0.609 | 0.473 | 0.567 | – | – | – | 0.949 | 0.772 | 0.715
15 | NCI-H1563 | 1.03 | 0.911 | 0.862 | 0.979 | 0.922 | – | – | – | – | – | 0.734 | 0.655 | 0.581 | 0.915 | 0.927 | 0.685 | 0.85 | 0.899 | 0.761
16 | SK-MES-1 | 0.449 | 0.472 | 0.444 | 0.505 | 0.471 | 0.355 | 0.305 | 0.352 | 0.289 | 0.272 | 0.25 | 0.235 | 0.271 | – | – | – | 0.442 | 0.424 | 0.514
17 | LCLC-103H | – | – | – | – | – | 0.472 | 0.462 | 0.514 | 0.492 | 0.486 | 0.536 | 0.592 | 0.651 | 1.18 | 1.04 | 1.12 | – | – | –
18 | NCI-H1703 | 1.25 | 0.858 | 1.03 | 0.831 | 1.6 | – | – | – | – | – | 0.253 | 0.211 | 0.218 | 0.389 | 0.185 | 0.381 | 1.21 | 0.749 | 0.906
19 | NCI-H2342 | – | – | – | – | – | 0.515 | 0.512 | 0.494 | 0.498 | 0.527 | – | – | – | – | – | – | – | – | –
20 | NCI-H1944 | 0.774 | 0.674 | 0.802 | 0.909 | 0.545 | 0.336 | 0.339 | 0.34 | 0.333 | 0.333 | 0.3 | 0.341 | 0.357 | – | – | – | 0.897 | 0.856 | 0.951
21 | NCI-H358 | 0.5 | 0.431 | 0.39 | 0.495 | 0.425 | 0.163 | 0.106 | 0.126 | 0.116 | 0.112 | 0.274 | 0.28 | 0.286 | – | – | – | 0.434 | 0.383 | 0.417
22 | NCI-H1648 | – | – | – | – | – | 0.277 | – | 0.284 | 0.246 | 0.224 | – | – | – | – | – | – | – | – | –
23 | NCI-H1793 | 0.794 | 0.409 | 0.641 | 0.753 | 0.636 | 0.222 | – | 0.279 | 0.296 | 0.388 | 0.366 | 0.344 | 0.277 | – | – | – | 0.675 | 0.471 | 0.522
